These results are taken from patent US9546201B2, “MUC-1 cytoplasmic domain peptides as inhibitors of cancer” (DANA-FARBER CANCER INSTITUTE, INC., priority 2008, dated 2017).

In assay [1] the test system is ZR-75-1 breast tumor xenografts. On the procedure: FIGS. 5A-C. […] (FIG. 5A) Four to six week-old female Balb-c nu/nu mice were implanted with 17-β-estradiol plugs. After 24 h, ZR-75-1 breast cancer cells (imbedded in matrigel) were injected subcutaneously in the flank. When tumors were ˜150 mm3, the mice were paired matched into groups and injected intraperitoneally with PBS (vehicle control; closed squares), 50 mg/kg MUC1/AQA peptide (control peptide; open squares) or 10 mg/kg MUC1/CQC peptide (closed triangles) daily for 21 d. Another group was treated with 50 mg/kg MUC1/CQC peptide daily (⇑) for 6 d (open triangles). Mice were weighed twice weekly and tumor measurements were performed every 4 d. (FIGS. 5B and 5C). On day 24 (asterisk), tumors harvested from the control group and the group treated with 50 mg/kg/d×6d were stained with H&E (FIG. 5B) and with an antibody against MUC1 (FIG. 5C).
(FIG. 6A) Mice were injected with ZR-75-1 cells as described in the legend to FIG. 5A. When tumors were ˜275 mm^3, the mice were paired matched into groups and injected intraperitoneally with PBS (vehicle control; open squares) or 30 mg/kg MUC1/CQC peptide (closed squares) daily for 21 days (solid horizontal bar). […] The treated mice were monitored until day 52 when tumors were harvested for H&E staining (FIG. 6B).
Balb-c nu/nu female mice (Charles River Laboratories, Wilmington, Mass.), 4-6 weeks old weighing 18-22 grams, were implanted subcutaneously with 17-β-estradiol plugs (0.72 mg; Innovative Research, Sarasota, Fla.) using a trocar gun. After 24 h, 1×10^7 ZR-75-1 cells imbedded in Matri-Gel (BD Biosciences) were injected subcutaneously in the flank. When tumors were detectable at ˜150 mm^3 (Cohort 1) or 275 mm^3 (Cohort 2), the mice were pair matched into treatment and control groups. Each group contained 5 mice, each of which was ear tagged and followed throughout the study. Initial dosing was administered at the time of pair matching (day 1). Phosphate-buffered saline (vehicle), MUC1/CQC peptide and MUC1/AQA peptide were administered daily by intraperitoneal injection. Mice were weighed twice weekly, and tumor measurements were performed using calipers every 4 d. Tumor volume (V) was calculated using the formula V=W2×L/2, where W and L are the smaller and larger diameters, respectively. At sacrifice, the mice were perfused with saline and then phosphate-buffered formalin by cardiac administration. Tumors were excised, immersion fixed for 4 h, dehydrated through a graded series of ethanols, and processed for routine paraffin embedding. Tumors were evaluated by H&E staining and for immunoperoxidase staining with anti-MUC1 as described (Kufe, 1984).
To determine if administration of the MUC1/CQC peptide is associated with effects on body weight, five female nude (nu/nu) mice were injected intraperitoneally (IP) once each day at a dose of 50 mg/kg. […] To assess anti-tumor activity, ZR-75-1 cells (1×10^7) were implanted subcutaneously into the flanks of nude mice. After 12 d, mice bearing tumors of approximately 150 mm^3 were treated with the MUC1/CQC peptide at doses of 10 and 50 mg/kg/d. As controls, mice were treated with vehicle alone or with the MUC1/AQA peptide. […] To assess in part the basis for the activity, tumors harvested from control and treated mice were examined by histopathology. […] Sections of the tumors were also stained with an antibody against MUC1.
Studies were also performed on larger tumors (˜275 mm^3) (FIG. 6A).

In assay [2] the test system is ZR-75-1 cells. Description: Cell cycle distribution, apoptosis and necrosis by flow cytometry, ZR-75-1. Type of assay: cell-based, human. As to conditions: 5 μM; for induction of necrosis: detectable at 72 h, more prominent at 96 h. On the procedure: FIGS. 3A-D. MUC1/CQC peptide induces S phase arrest and necrosis. ZR-75-1 (FIGS. 3A-B) and MCF-7 (FIGS. 3C-D) cells were treated with 5 μM MUC1/CQC or MUC1/AQA for 3 and 4 d. Cells were fixed and analyzed for cell cycle distribution by flow cytometry (FIGS. 3A and 3C). The percentage of cells in G1, S and G2/M phases is included in the panels. Cells were also stained with propidium iodide and analyzed by flow cytometry for necrosis (FIGS. 3B and 3D). The percentage of necrotic cells is included in the panels.
Cells were harvested, washed with PBS, fixed with 80% ethanol, and incubated in PBS containing 40 μg/ml RNAse and 40 μg/ml propidium iodide for 30 min at 37° C. Cell cycle distribution was determined by flow cytometry. Sub-G1 DNA content was assessed by staining ethanol-fixed and citrate buffer-permeabilized cells with propidium iodide and monitoring by flow cytometry as described (Yin et al., 2007). For assessment of necrosis, cells were incubated with 1 μg/ml propidium iodide/PBS for 5 min at room temperature and then monitored by flow cytometry as described (Yin et al., 2007).
To determine whether the MUC1/CQC peptide affects growth, ZR-75-1 cells were treated with 5 μM MUC1/CQC for 72 h and monitored for cell cycle distribution. […] These findings indicate that the MUC1/CQC peptide inhibits growth and induces necrosis of human breast cancer cells.

Where [3] appears, read: 30 mg/kg/d×21 d, tumors harvested on day 52.

Like-named read-outs stand apart in the source and are kept apart here. Where a SMILES comes first, the peptide text is derived from it. Where no end group is shown, it is not given here. [ ]: non-standard residue; d: D form.

`CC[C@H](C)[C@H](NC(=O)[C@H](CC(=O)O)NC(=O)[C@H](CC(C)C)NC(=O)[C@H](CCC(N)=O)NC(=O)CNC(=O)[C@H](Cc1ccc(O)cc1)NC(=O)[C@H](CC(N)=O)NC(=O)[C@H](CCCCN)NC(=O)[C@H](CCCNC(=N)N)NC(=O)[C@H](CCCNC(=N)N)NC(=O)[C@H](CS)NC(=O)[C@H](CCC(N)=O)NC(=O)[C@H](CS)NC(=O)[C@@H](CCCNC(=N)N)NC(=O)[C@@H](CCCNC(=N)N)NC(=O)[C@@H](CCCNC(=N)N)NC(=O)[C@@H](CCCNC(=N)N)NC(=O)[C@@H](CCCNC(=N)N)NC(=O)[C@@H](CCCNC(=N)N)NC(=O)[C@@H](CCCNC(=N)N)NC(=O)[C@@H](CCCNC(=N)N)NC(=O)[C@H](N)CCCNC(=N)N)C(=O)N[C@@H](Cc1ccccc1)C(=O)N1CCC[C@H]1C(=O)O` [MUC1/CQC] (H-[dR][dR][dR][dR][dR][dR][dR][dR][dR]CQCRRKNYGQLDIFP-OH; N-terminus and C-terminus assumed): the tumor growth entry is listed as “slowed growth” in assay [1] (10 mg/kg/d×21 d IP, tumors ~150 mm3, compared with MUC1/AQA 50 mg/kg/d); “arrest of tumor growth” in assay [1] (30 mg/kg/d×21 d IP, larger tumors ~275 mm3); “effective in abrogating tumor growth” in assay [1] (10 and 30 mg/kg/d for 21 d). In addition, in assay [1] (setting [3]), the “MUC1 expression in tumors” value is listed as “down-regulation of MUC1 expression”. In addition, the “tumor histopathology (H&E)” value in assay [1] (setting [3]) is recorded as “extensive areas of necrosis”; in assay [1] (10 and 50 mg/kg, compared with vehicle or MUC1/AQA) it was “markedly necrotic”. For the same compound, the “tumor growth during treatment” value in assay [1] (50 mg/kg/d IP, initial 7 d, tumors ~150 mm3) is recorded as “blocked growth”. Also, the “MUC1 expression in tumors (anti-MUC1 staining)” value in assay [1] (tumors ~150 mm3 cohort, compared with control and MUC1/AQA) was “marked down-regulation of MUC1 expression”. Further, the “sub-G1 DNA content (apoptosis)” value in assay [2] is “little if any accumulation of cells with sub-G1 DNA content”. In addition, the cell cycle distribution entry in assay [2] (72 h) is given as “substantial arrest in S phase”. The S phase population result in assay [2] (96 h) is listed as “S phase population was decreased”. The induction of necrosis result in assay [2] is “induction of necrosis”.
For the compound “MUC1/AQA: control peptide in which the CQC motif was altered to AQA, with poly-dArg transduction domain; SEQ ID NO: 60 ([dR][dR][dR][dR][dR][dR][dR][dR][dR]AQARRKNYGQLDIFP) [reference compound]”, the anti-tumor activity entry in assay [1] (50 mg/kg/d for 21 d) is listed as “no anti-tumor activity”. In assay [2], the induction of necrosis result is listed as “not”.
